Laboratory results reported in patent US12396461B2, “Functional peptides having antimicrobial activity against phytopathogenic microorganisms” (TOYOTA JIDOSHA KABUSHIKI KAISHA, priority 2019, dated 2025).
Where “and” joins values, the source holds several entries; their conditions need not be identical. Equal values may be shown once. Read-outs that look alike come from different tables or passages of the source.

Key:
Type in all cases: cell-based
[1] = system: Colletotrichum destructivum; parameters: key to Plate antimicrobial activity test Colletotrichum destructivum, level: a case where hyphae extended to the entire well and no antimicrobial activity was found is defined as “level 0,”; a case where hyphae extended to less than a half of the well and thus the peptide inhibited the growth of the hyphae is defined as “level 1,”; a case where ungerminated spores were present and the peptide partially inhibited the germination is defined as “level 2,”; a case where all spores were ungerminated and the peptide completely inhibited the germination is defined as “level 3.”; conditions: 25° C. for 1 day or 2 days, microscopic observation
Botrytis cinerea = system: Botrytis cinerea; parameters: key to Plate antimicrobial activity test Botrytis cinerea, level: a case where hyphae extended to the entire well and no antimicrobial activity was found is defined as “level 0,”; a case where hyphae extended to less than a half of the well and thus the peptide inhibited the growth of the hyphae is defined as “level 1,”; a case where ungerminated spores were present and the peptide partially inhibited the germination is defined as “level 2,”; a case where all spores were ungerminated and the peptide completely inhibited the germination is defined as “level 3.”; conditions: 25° C. for 1 day or 2 days, microscopic observation
Pyricularia oryzae = system: Pyricularia oryzae; parameters: key to Plate antimicrobial activity test Pyricularia oryzae, level: a case where hyphae extended to the entire well and no antimicrobial activity was found is defined as “level 0,”; a case where hyphae extended to less than a half of the well and thus the peptide inhibited the growth of the hyphae is defined as “level 1,”; a case where ungerminated spores were present and the peptide partially inhibited the germination is defined as “level 2,”; a case where all spores were ungerminated and the peptide completely inhibited the germination is defined as “level 3.”; conditions: 25° C. for 1 day or 2 days, microscopic observation
[2] = system: Colletotrichum orbiculare; parameters: key to Plate antimicrobial activity test Colletotrichum orbiculare, level: a case where hyphae extended to the entire well and no antimicrobial activity was found is defined as “level 0,”; a case where hyphae extended to less than a half of the well and thus the peptide inhibited the growth of the hyphae is defined as “level 1,”; a case where ungerminated spores were present and the peptide partially inhibited the germination is defined as “level 2,”; a case where all spores were ungerminated and the peptide completely inhibited the germination is defined as “level 3.”; conditions: 25° C. for 1 day or 2 days, microscopic observation
Fusarium oxysporum = system: Fusarium oxysporum; parameters: key to Plate antimicrobial activity test Fusarium oxysporum, level: a case where hyphae extended to the entire well and no antimicrobial activity was found is defined as “level 0,”; a case where hyphae extended to less than a half of the well and thus the peptide inhibited the growth of the hyphae is defined as “level 1,”; a case where ungerminated spores were present and the peptide partially inhibited the germination is defined as “level 2,”; a case where all spores were ungerminated and the peptide completely inhibited the germination is defined as “level 3.”

Row | Substance | Plate antimicrobial activity test Colletotrichum destructivum, level ([1]; peptide 1 μM) | Plate antimicrobial activity test Colletotrichum destructivum, level ([1]; peptide 10 μM) | Plate antimicrobial activity test Colletotrichum destructivum, level ([1]; peptide 100 μM) | Plate antimicrobial activity test Botrytis cinerea, level (Botrytis cinerea; peptide 1 μM) | Plate antimicrobial activity test Botrytis cinerea, level (Botrytis cinerea; peptide 10 μM) | Plate antimicrobial activity test Botrytis cinerea, level (Botrytis cinerea; peptide 100 μM) | Plate antimicrobial activity test Pyricularia oryzae, level (Pyricularia oryzae; peptide 1 μM) | Plate antimicrobial activity test Pyricularia oryzae, level (Pyricularia oryzae; peptide 10 μM) | Plate antimicrobial activity test Pyricularia oryzae, level (Pyricularia oryzae; peptide 100 μM) | Plate antimicrobial activity test Colletotrichum orbiculare, level ([2]; peptide 1 μM) | Plate antimicrobial activity test Colletotrichum orbiculare, level ([2]; peptide 10 μM) | Plate antimicrobial activity test Colletotrichum orbiculare, level ([2]; peptide 100 μM) | Plate antimicrobial activity test Fusarium oxysporum, level (Fusarium oxysporum)
1 | KNKKVAKM (listed as Solanum lycopersicum) [TsORF6-1-8aa-12, partial peptide of TsORF6-1, 8 amino acid residues] | 0 | 0 | 0 | 0 | 0 | 0 | 0 | 0 | 0 | 0 | 0 | 0 | 0
2 | KNKKV (listed as Solanum lycopersicum) [TsORF6-1-5aa-12, partial peptide of TsORF6-1, 5 amino acid residues] | 0 | 0 | 0 | 0 | 0 | 0 | 0 | 0 | 0 | 0 | 0 | 0 | 0
3 | KMMVKEDEKNKRVITMKEELMV (listed as Solanum lycopersicum) [TsORF6-2, chemically synthesized region of TsORF6] | 0 | 0 | 0 | 0 | 0 | 2 | 0 | 0 | 0 | 0 | 0 | 0 | 1 and 0
4 | KTKVKNKK (listed as Solanum lycopersicum) [TsORF6-1-8aa-8, partial peptide of TsORF6-1, 8 amino acid residues] | 0 | 0 | 0 | 0 | 0 | 1 | 0 | 0 | 0 | 0 | 0 | 0 | 0
5 | VKNKKVAK (listed as Solanum lycopersicum) [TsORF6-1-8aa-11, partial peptide of TsORF6-1, 8 amino acid residues] | 0 | 0 | 0 | 0 | 0 | 0 | 0 | 0 | 0 | 0 | 0 | 0 | 0
6 | MIVVK (listed as Solanum lycopersicum) [TsORF6-1-5aa-4, partial peptide of TsORF6-1, 5 amino acid residues] | 0 | 0 | 1 | 0 | 0 | 1 | 0 | 0 | 1 | 0 | 0 | 1 | 0
7 | VKTKVKNK (listed as Solanum lycopersicum) [TsORF6-1-8aa-7, partial peptide of TsORF6-1, 8 amino acid residues] | 0 | 0 | 0 | 0 | 0 | 0 | 0 | 0 | 0 | 0 | 0 | 0 | 0
8 | NKKVAKMM (listed as Solanum lycopersicum) [TsORF6-1-8aa-13, partial peptide of TsORF6-1, 8 amino acid residues] | 0 | 0 | 0 | 0 | 0 | 0 | 0 | 0 | 0 | 0 | 0 | 0 | 0
9 | MIVVKTKV (listed as Solanum lycopersicum) [TsORF6-1-8aa-4, partial peptide of TsORF6-1, 8 amino acid residues] | 0 | 0 | 0 | 0 | 0 | 0 | 0 | 0 | 0 | 0 | 0 | 0 | 0
10 | KVAKMMVK (listed as Solanum lycopersicum) [TsORF6-1-8aa-15, partial peptide of TsORF6-1, 8 amino acid residues] | 0 | 0 | 0 | 0 | 0 | 0 | 0 | 0 | 0 | 0 | 0 | 0 | 0
